Legend:
[1] = Stability assessment / semi-quantitative hygroscopicity in a relative humidity (RH) chamber; assay type: physicochemical; conditions: solid in RH chamber; morphology and parent:prodrug composition
Experimental: “ND” in Table 2 refers to “No Data”. Purity was determined by HPLC. Melting point was determined by differential scanning calorimetry (“DSC”), and semi-quantitative hygroscopicity was determined in a relative humidity (“RH”) chamber.

[2] = Stability in mouse liver microsomal preparations; assay type: in vitro ADME; conditions: liver microsomes, with and without 1 mM NADPH (not said which), read-out: Mouse Liver Microsomes t1/2
Experimental: (§1) Relative stability of Example Compound Nos. 1 through 60 in mouse plasma and mouse liver microsomal preparations.
(§2) Certain Example Compounds were each added to a final concentration of 1 μM to 1 mL of each of mouse plasma and mouse liver microsomal preparations (with and without 1 mM NADPH). Stability assays were run in duplicate and were sampled at 0, 5, 15, 30, 60 and 120 minutes as follows: one hundred microliter aliquots of samples were removed at the specified sampling times, and the reaction was quenched with 400 μL of acetonitrile.
(§3) Samples were analyzed by HPLC-ESI-MS/MS by measuring the peak area of both the starting Example Compound and parent compound (i.e., either Parent Compound A or Parent Compound B) that were created by removal of the Prodrug Moiety (as defined in Section 6 herein).

[3] = Stability in mouse plasma; assay type: in vitro ADME; conditions: read-out: Mouse Plasma t1/2
Experimental: as §1, §2, §3

[4] = test system: HT1080 human fibrosarcoma cancer cells; assay: Anti-tumor activity in HT1080 human fibrosarcoma xenograft with twice daily dosing; assay type: in vivo; conditions: for anti-tumor activity in the HT1080 xenograft model (summary statement): administered orally, twice daily; for animals euthanized due to tumor volume exceeding 1,500 mm^3 / animals died: Example Compound 42 study, cohort of ten
Experimental: One million HT1080 cells were implanted subcutaneously in the right flank of female nude mice (Crl:NU-Fox1^nu). When the median tumor volume (MTV) was approximately 209 mm^3, mice were randomized into four cohorts of ten animals. […] All cohorts were dosed twice daily for 7 days. The mice were observed daily for mortality and signs of toxicity. Tumor volumes and body weights were determined from Days 1 to 22. The results are depicted in FIG. 4.

[5] = Example Compounds 44/45 study, 12 mg/kg twice daily for 7 days, Day 9

half-life at 1 µM [2] [min]	half-life at 1 µM [3] [min]	SMILES	Stability at 40° C. and 75% RH [1]	Stability at 60° C. and 75% RH [1]	further results
–	–	CC(C)C(=O)OC(C)[n+]1cccc(CNC(=O)Nc2ccc(OCCc3ccccc3-c3ccccc3)cc2)c1 (centres unmarked) [Example 47, 3-{[({4-[2-(Biphenyl-2-yl)ethoxy]phenyl}carbamoyl)amino]methyl}-1-{1-[(2-methylpropanoyl)oxy]ethyl}pyridinium]	No change in morphology at 14 days, only prodrug observed	Approximately 45:55 parent to prodrug observed after 14 days	–
–	–	O=C(NCc1ccc[n+](COC(=O)N2CCOCC2)c1)Nc1ccc(OCCc2ccccc2-c2ccccc2)cc1 [Example 60, 3-{[({4-[2-(Biphenyl-2-yl)ethoxy]phenyl}carbamoyl)amino]methyl}-1-{[(morpholin-4-ylcarbonyl)oxy]methyl}pyridinium]	Deliquesced at 4 h	Deliquesced at 4 h	–
1250	87.2	O=C(NCc1ccc[n+](COC(=O)N2CCC[C@H]2CO)c1)Nc1ccc(OCCc2ccccc2-c2ccccc2)cc1 [Example 46, 3-{[({4-[2-(Biphenyl-2-yl)ethoxy]phenyl}carbamoyl)amino]methyl}-1-[({[(2S)-2-(hydroxymethyl)pyrrolidin-1-yl]carbonyl}oxy)methyl]pyridinium]	–	–	–
59.1	29.8	CC(C)C(OC(=O)c1ccccc1)[n+]1cccc(CNC(=O)Nc2ccc(OCCc3ccccc3-c3ccccc3)cc2)c1 (centres unmarked) [Example 43, 1-[1-(Benzoyloxy)-2-methylpropyl]-3-{[({4-[2-(biphenyl-2-yl)ethoxy]phenyl}carbamoyl)amino]methyl} pyridinium]	No change in morphology at 14 days, only prodrug observed	Approximately 5:95 parent to prodrug observed at 14 days	–
–	–	O=C(NCc1ccc[n+](COC(=O)N2CCCC2)c1)Nc1ccc(OCCc2ccccc2-c2ccccc2)cc1 [Example 59, 3-{[({4-[2-(Biphenyl-2-yl)ethoxy]phenyl}carbamoyl)amino]methyl}-1-{[(pyrrolidin-1-ylcarbonyl)oxy]methyl}pyridinium]	–	Deliquesced at 4 h	–
113	27	CC(OC(=O)C(C)(C)C)[n+]1cccc(CNC(=O)Nc2ccc(OCCc3ccccc3-c3ccccc3)cc2)c1 (centres unmarked) [Example 39, 3-{[({4-[2-(Biphenyl-2-yl)ethoxy]phenyl}carbamoyl)amino]methyl}-1-{1-[(2,2-dimethylpropanoyl)oxy]ethyl}pyridinium]	Deliquesced at 2 Hr No change in composition	Deliquesced at 2 Hr No change in composition	–
18.7	> 5	CC(=O)OC(C)[n+]1cccc(CNC(=O)Nc2ccc(OCCc3ccccc3-c3ccccc3)cc2)c1 (centres unmarked) [Example 37, 1-[1-(Acetyloxy)ethyl]-3-{[({4-[2-(biphenyl-2-yl)ethoxy]phenyl}carbamoyl)amino]methyl}pyridinium]	Deliquesced at 2 Hr No change in composition	Deliquesced at 2 Hr No change in composition	–
–	–	COC(=O)CN(C)C(=O)OC[n+]1cccc(CNC(=O)Nc2ccc(OCCc3ccccc3-c3ccccc3)cc2)c1 [Example 50, Methyl N-{[(3-{[({4-[2-(biphenyl-2-yl)ethoxy]phenyl}carbamoyl)amino]methyl}pyridinium-1-yl)methoxy]carbonyl}-N-methylglycinate]	No change in morphology at 14 days, only prodrug observed	Oiled out at 2 days No decomposition observed	–
–	–	O=C(NCc1ccc[n+](COC(=O)c2ccccc2O)c1)Nc1ccc(OCCc2ccccc2-c2ccccc2)cc1 [Example 55, 3-{[({4-[2-(Biphenyl-2-yl)ethoxy]phenyl}carbamoyl)amino]methyl}-1-{[(2-hydroxybenzoyl)oxy]methyl}pyridinium]	Deliquesced at 4 h	Deliquesced at 4 h	–
30.9	> 5	CC(=O)OC(C(C)C)[n+]1cccc(CNC(=O)Nc2ccc(OCCc3ccccc3-c3ccccc3)cc2)c1 (centres unmarked) [Example 38, 1-[1-(Acetyloxy)-2-methylpropyl]-3-{[({4-[2-(biphenyl-2-yl)ethoxy]phenyl}carbamoyl)amino]methyl}pyridinium]	No change in morphology at 7 days	Deliquesced at 4 days	–
–	–	O=C(NCc1ccc[n+](COC(=O)c2cccnc2)c1)Nc1ccc(OCCc2ccccc2-c2ccccc2)cc1 [Example 53, 3-{[({4-[2-(Biphenyl-2-yl)ethoxy]phenyl)carbamoyl)amino]methyl}-1-{[(pyridin-3-ylcarbonyl)oxy]methyl}pyridinium]	–	All prodrug decomposed to parent at 24 h	–
–	–	COC(=O)CCC(=O)OC[n+]1cccc(CNC(=O)Nc2ccc(OCCc3ccccc3-c3ccccc3)cc2)c1 [Example 54, 3-{[({4-[2-(Biphenyl-2-yl)ethoxy]phenyl}carbamoyl)amino]methyl}-1-{[(4-methoxy-4-oxobutanoyl)oxy]methyl}pyridinium]	–	Deliquesced at 4 days	–
–	–	COC(=O)CCNC(=O)OC[n+]1cccc(CNC(=O)Nc2ccc(OCCc3ccccc3-c3ccccc3)cc2)c1 [Example 49, Methyl N-{[(3-{[({4-[2-(biphenyl-2-yl)ethoxy]phenyl}carbamoyl)amino]methyl}pyridinium-1-yl)methoxy]carbonyl}-beta-alaninate]	Deliquesced at 24 hrs No decomposition observed	Deliquesced at 7 days	–
–	–	COC(=O)CNC(=O)OC[n+]1cccc(CNC(=O)Nc2ccc(OCCc3ccccc3-c3ccccc3)cc2)c1 [Example 48, Methyl N-{[(3-{[({4-[2-(biphenyl-2-yl)ethoxy]phenyl}carbamoyl)amino]methyl}pyridinium-1-yl)methoxy]carbonyl}glycinate]	Deliquesced at 2 hr No decomposition observed	Deliquesced at 2 hr No decomposition observed	–
–	–	CC(OC(=O)c1ccccc1)[n+]1cccc(CNC(=O)Nc2ccc(OCCc3ccccc3-c3ccccc3)cc2)c1 (centres unmarked) [Example 42, 1-[1-(Benzoyloxy)ethyl]-3-{[({4-[2-(biphenyl-2-yl)ethoxy]phenyl}carbamoyl)amino]methyl}pyridinium]	No change in morphology at 14 days, only prodrug observed	Deliquesced at 13 days, approx 40:60 parent to prodrug observed	MTV increase ([4]; 4 mg/kg twice daily for 7 days, Day 8): 131%; tumor growth inhibition ([4]; 4 mg/kg twice daily for 7 days, end of dosing, Day 8): 21%; MTV increase ([4]; 4 mg/kg twice daily for 7 days, end of the study, Day 15): 469%; MTV increase ([4]; 6 mg/kg twice daily for 7 days, Day 8): 87%; tumor growth inhibition ([4]; 6 mg/kg twice daily for 7 days, end of dosing, Day 8): 48%; MTV increase ([4]; 6 mg/kg twice daily for 7 days, end of the study, Day 15): 215%; MTV decrease ([4]; 8 mg/kg twice daily for 7 days, Day 8): 4%; tumor regression ([4]; 8 mg/kg twice daily for 7 days, end of dosing, Day 8): 4%; MTV increase ([4]; 8 mg/kg twice daily for 7 days, end of the study, Day 15): 449%; MTV decrease ([4]; 12 mg/kg twice daily for 7 days, Day 8): 38%; tumor regression ([4]; 12 mg/kg twice daily for 7 days, end of dosing, Day 8): 38%; MTV increase ([4]; 12 mg/kg twice daily for 7 days, end of the study, Day 15): 236%; animals euthanized due to tumor volume exceeding 1,500 mm^3 ([4]; 4 mg/kg): three; animals died ([4]; 6 mg/kg): One; animals euthanized due to tumor volume exceeding 1,500 mm^3 ([4]; 6 mg/kg): one; animals died ([4]; 8 mg/kg): One; animals euthanized due to tumor volume exceeding 1,500 mm^3 ([4]; 8 mg/kg): two; animals died ([4]; 12 mg/kg): One; anti-tumor activity in the HT1080 xenograft model (summary statement) ([4]; all doses tested): dose-dependent anti-tumor activity

SMILES	half-life at 1 µM [2] [min]	half-life at 1 µM [3] [min]	Stability at 40° C. and 75% RH [1]	Stability at 60° C. and 75% RH [1]	further results
CC(=O)OC[C@@H]1CCCN1C(=O)OC[n+]1cccc(CNC(=O)Nc2ccc(OCCc3ccccc3-c3ccccc3)cc2)c1 [Example 45, 1-{[({(2S)-2-[(Acetyloxy)methyl]pyrrolidin-1-yl}carbonyl)oxy]methyl}-3-{[({4-[2-(biphenyl-2-yl)ethoxy]phenyl}carbamoyl)amino]methyl}pyridinium]	> 5	> 5	–	–	MTV decrease [4, 5]: 54%; tumor regression [4, 5]: 54%; tumor growth inhibition relative to vehicle ([4]; Example Compounds 44/45 study, 12 mg/kg twice daily for 7 days, Day 22): 91%; MTV increase ([4]; Example Compounds 44/45 study, 12 mg/kg twice daily for 7 days, end of the study, Day 22): 33%; anti-tumor activity in the HT1080 xenograft model (summary statement) ([4]; all doses tested): significant anti-tumor activity; Tolerability ([4]; xenograft mice, all doses tested, orally twice daily): well tolerated
